# In ChEMBL document CHEMBL2150847, “Scaffold hopping strategy toward original pyrazolines as selective CB₂ receptor ligands” (Eur J Med Chem, 2012):
# Active and inactive are the calls of the source. The calls are words filed in the database; no cut-off is given here.
# Tests used:
# Cannabinoid receptor 1 = Cannabinoid receptor 1 (Homo sapiens, UniProt P21554); assay: Displacement of [3H]CP55940 from human CB1 receptor expressed in CHO cell membranes after 1 hr by scintillation counting
# Cannabinoid receptor 2 [1] = biological target: T1, Cannabinoid receptor 2 (Homo sapiens, UniProt P34972); assay: Displacement of [3H]CP55940 from human CB2 receptor expressed in CHO cell membranes after 1 hr by scintillation counting
# T1 sequence (P34972 whole entry): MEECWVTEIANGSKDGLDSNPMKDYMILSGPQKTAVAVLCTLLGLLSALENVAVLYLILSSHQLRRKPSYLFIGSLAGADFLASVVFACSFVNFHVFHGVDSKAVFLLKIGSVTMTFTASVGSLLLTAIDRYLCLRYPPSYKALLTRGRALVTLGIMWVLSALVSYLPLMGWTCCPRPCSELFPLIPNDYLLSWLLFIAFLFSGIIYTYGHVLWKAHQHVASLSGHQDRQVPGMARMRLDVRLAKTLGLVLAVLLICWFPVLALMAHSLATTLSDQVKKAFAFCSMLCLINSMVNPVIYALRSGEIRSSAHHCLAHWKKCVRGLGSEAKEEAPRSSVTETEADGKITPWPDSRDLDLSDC
# Cannabinoid receptor 2 [2] = biological target: T1, Cannabinoid receptor 2; assay: Agonist activity at human CB2 receptor expressed in CHO cell membranes after 1 hr by [35S]GTPgammaS binding assay relative to baseline; type: functional
# Cannabinoid receptor 2 [3] = biological target: T1, Cannabinoid receptor 2; assay: Agonist activity at human CB2 receptor expressed in CHO cell membranes after 1 hr by [35S]GTPgammaS binding assay; type: functional
# Homo sapiens = organism: Homo sapiens; assay: Selectivity ratio of Ki for human CB1 receptor to Ki for human CB2 receptor
# Cannabinoid receptor 2 [4] = biological target: T1, Cannabinoid receptor 2; assay: Antagonist activity at human CB2 receptor expressed in CHO cell membranes after 1 hr by [35S]GTPgammaS binding assay; type: functional
# Sequence of Cannabinoid receptor 1 (P21554 whole entry): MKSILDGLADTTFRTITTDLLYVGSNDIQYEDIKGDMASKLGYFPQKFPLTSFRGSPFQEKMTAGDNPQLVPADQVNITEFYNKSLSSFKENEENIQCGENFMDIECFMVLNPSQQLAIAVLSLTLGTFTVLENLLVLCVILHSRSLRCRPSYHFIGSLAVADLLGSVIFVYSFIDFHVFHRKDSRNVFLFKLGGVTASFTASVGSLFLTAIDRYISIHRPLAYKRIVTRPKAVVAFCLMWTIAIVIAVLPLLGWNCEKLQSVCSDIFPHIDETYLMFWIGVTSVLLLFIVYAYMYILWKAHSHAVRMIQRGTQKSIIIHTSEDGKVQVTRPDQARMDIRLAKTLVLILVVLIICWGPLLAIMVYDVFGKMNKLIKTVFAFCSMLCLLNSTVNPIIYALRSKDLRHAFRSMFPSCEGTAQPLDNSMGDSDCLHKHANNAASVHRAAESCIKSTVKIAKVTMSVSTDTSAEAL
structure (smiles),measurement,setting,value
Cc1ccc(CC2CN(C(=O)Nc3ccccc3)N=C2c2ccc(Cl)c(C)c2)cc1 (configuration not stated),Ki,Cannabinoid receptor 1,> 3 µM
same,Ki,Cannabinoid receptor 2 [1],> 1 µM
Cc1ccc(CC2CN(C(=O)NC3C4(C)CCC(C4)C3(C)C)N=C2c2ccc(Cl)c(C)c2)cc1 (configuration not stated),Ki,Cannabinoid receptor 1,> 1 µM
same,Ki,Cannabinoid receptor 2 [1],0.251 µM
same,Emax,Cannabinoid receptor 2 [2],163%
same,EC50,Cannabinoid receptor 2 [3],0.191 µM
same,Ratio Ki,Homo sapiens,> 4
O=C(Nc1ccccc1)N1CC(Cc2ccccc2)C(c2ccccc2)=N1 (configuration not stated),Ki,Cannabinoid receptor 1,> 3 µM
same,Ki,Cannabinoid receptor 2 [1],> 3 µM
CC(=O)N1CC(Cc2ccccc2)C(c2ccccc2)=N1 (configuration not stated),Ki,Cannabinoid receptor 1,> 3 µM
same,Ki,Cannabinoid receptor 2 [1],> 3 µM
Cc1ccc(CC2CN(C(=O)NC3CCCCC3)N=C2c2ccc(Cl)c(C)c2)cc1 (configuration not stated),Ki,Cannabinoid receptor 1,> 3 µM
same,Ki,Cannabinoid receptor 2 [1],0.385 µM
same,Emax,Cannabinoid receptor 2 [2],187%
same,EC50,Cannabinoid receptor 2 [3],0.371 µM
same,Ratio Ki,Homo sapiens,> 8
Cc1cc(C2=NN(C(=O)NC3CCCCC3)CC2Cc2ccccc2)ccc1Cl (configuration not stated),Ki,Cannabinoid receptor 1,> 3 µM
same,Ki,Cannabinoid receptor 2 [1],> 1 µM
Cc1cc(C2=NN(C(=O)Nc3ccccc3)CC2Cc2ccccc2)ccc1Cl (configuration not stated),Ki,Cannabinoid receptor 1,> 3 µM
same,Ki,Cannabinoid receptor 2 [1],> 3 µM
O=C(NC1CCCCC1)N1CC(Cc2ccccc2)C(c2ccc(Cl)cc2)=N1 (configuration not stated),Ki,Cannabinoid receptor 1,> 3 µM
same,Ki,Cannabinoid receptor 2 [1],> 3 µM
Cc1cccc(C2=NN(C(=O)Nc3ccccc3)CC2Cc2ccccc2)c1 (configuration not stated),Ki,Cannabinoid receptor 1,> 3 µM
same,Ki,Cannabinoid receptor 2 [1],> 3 µM
Cc1cc(C2=NN(C(=O)NC3CCCCC3)CC2C2CCCC2)ccc1Cl (configuration not stated),Ki,Cannabinoid receptor 1,> 3 µM
same,Ki,Cannabinoid receptor 2 [1],3.64 µM
same,Activity,Cannabinoid receptor 2 [4],Active
same,Ratio Ki,Homo sapiens,1.2
Cc1cc(C2=NN(C(=O)NC3C4(C)CCC(C4)C3(C)C)CC2Cc2ccccc2)ccc1Cl (configuration not stated),Ki,Cannabinoid receptor 1,> 1 µM
same,Ki,Cannabinoid receptor 2 [1],0.689 µM
same,Emax,Cannabinoid receptor 2 [2],183%
same,EC50,Cannabinoid receptor 2 [3],0.749 µM
same,Ratio Ki,Homo sapiens,> 4
O=C(NC1CCCCC1)N1CC(Cc2ccccc2)C(c2ccccc2)=N1 (configuration not stated),Ki,Cannabinoid receptor 1,> 3 µM
same,Ki,Cannabinoid receptor 2 [1],0.504 µM
same,Emax,Cannabinoid receptor 2 [2],136%
same,EC50,Cannabinoid receptor 2 [3],0.297 µM
same,Ratio Ki,Homo sapiens,> 6
O=C(Nc1ccccc1)N1CC(Cc2ccccc2)C(c2ccc(Cl)cc2)=N1 (configuration not stated),Ki,Cannabinoid receptor 1,> 3 µM
same,Ki,Cannabinoid receptor 2 [1],> 3 µM
Cc1cccc(C2=NN(C(=O)NC3CCCCC3)CC2Cc2ccccc2)c1 (configuration not stated),Ki,Cannabinoid receptor 1,> 3 µM
same,Ki,Cannabinoid receptor 2 [1],> 3 µM
